Source: patent US20060069132A1, “Azolecarboxamide herbicides” (priority 2004, published 2006)

Tests used:
pigweed = assay: Test C pre-/postemergence herbicide test; assay type: in vivo, Amaranthus retroflexus
Procedure, shortened: (§1)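 Greenhouse-grown plants were evaluated visually 12 to 14 days after treatment, with 100 meaning complete control and 0 no effect. Application was preemergence, or postemergence at 2 to 18 cm.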

giant foxtail = assay: Test C pre-/postemergence herbicide test; assay type: in vivo, Setaria faberi
Procedure, shortened: as §1

goosegrass = assay: Test C pre-/postemergence herbicide test; assay type: in vivo, Eleusine indica
Procedure, shortened: as §1

lambsquarters = assay: Test C pre-/postemergence herbicide test; assay type: in vivo, Chenopodium album
Procedure, shortened: as §1

rice [1] = assay: Test B pre-/postemergence herbicide test; assay type: in vivo, Oryza sativa; conditions: for Rice plant response rating (0 to 100 scale) / Plant response rating, Rice: preemergence; for Plant response rating, Rice: visual rating
Procedure, shortened: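 Seeds were planted and treated preemergence with compounds formulated in a non-phytotoxic solvent mixture containing surfactant, while plants at the 1- to 4-leaf stage (2 to 18 cm) received postemergence sprays. Flooded paddy plants were grown to the 2-leaf stage. After 13 to 15 days in a greenhouse, injury was visually rated 0–100 against untreated controls.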

barnyardgrass = assay: Test C flooded paddy test; assay type: in vivo, Echinochloa crus-galli; conditions: for Plant response rating, Barnyardgrass: 500 g ai/ha, visual rating after 12 to 14 days
Procedure, shortened: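 Visual rating, 0 (no effect) to 100 (complete control), vs. controls at 12–14 d in greenhouse. Postemergence: 1–4-leaf plants, 2–18 cm. Paddy: flooded, barnyardgrass at 2-leaf stage.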

rice [2] = assay: Test C flooded paddy test; assay type: in vivo, Oryza sativa; conditions: for Plant response rating, Rice: 500 g ai/ha, visual rating after 12 to 14 days
Procedure, shortened: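 Plants were grown to the 1- to 4-leaf stage (2–18 cm) and then treated postemergence, or grown to the 2-leaf stage for the flooded paddy test. They were held in a greenhouse for 12 to 14 days and then scored by eye against controls, where 0 is no effect and 100 is complete control.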

[3] = Preemergence, 500 g ai/ha, scale 0 to 100, 0 no effect, 100 complete control
[4] = 62 g ai/ha, preemergence, scale 0 to 100
[5] = 125 g ai/ha, scale 0 (no effect) to 100 (complete control), visual, 12 to 14 days, preemergence
[6] = 250 g ai/ha, scale 0-100, preemergence
[7] = 500 g ai/ha, scale 0 to 100 (0 no effect, 100 complete control), visual, 12 to 14 days, preemergence
[8] = 62 g ai/ha, scale 0 to 100 (0 no effect, 100 complete control)
[9] = 125 g ai/ha, scale 0 to 100 (0 no effect, 100 complete control)
[10] = 250 g ai/ha, scale of 0 to 100, 0 is no effect, 100 is complete control
[11] = scale 0 to 100 (0 no effect, 100 complete control)
[12] = 125 g ai/ha, 0 = no effect, 100 = complete control
[13] = 500 g ai/ha, 0 = no effect, 100 = complete control

## CCc1nn(C(C)(C)C)cc1C(=O)Nc1cccc(C(=O)N(CC)CC)c1 [Compound 182, N-[3-[(diethylamino)carbonyl]phenyl]-1-(1,1-dimethylethyl)-3-ethyl-1H-pyrazole-4-carboxamide]
pigweed; Amaranthus retroflexus, pre-emergence, 62 g ai/ha, preemergence, scale 0 to 100, read-out: Plant response rating, Pigweed
  pest or weed control at 62 g/ha: 95%
pigweed; Amaranthus retroflexus, pre-emergence, 125 g ai/ha, scale 0 (no effect) to 100 (complete control), visual, 12 to 14 days, read-out: Plant response rating, Pigweed
  pest or weed control at 125 g/ha: 95%
pigweed; [3]
  Pigweed plant response rating: 95
Giant foxtail; [3]
  Foxtail, Giant plant response rating: 60
Giant foxtail; Setaria faberi, pre-emergence, 312 h, 62 g ai/ha, preemergence, scale 0 to 100, read-out: Plant response rating, Foxtail, Giant
  pest or weed control at 62 g/ha: 0%
Giant foxtail; Setaria faberi, pre-emergence, 312 h, 125 g ai/ha, scale 0 (no effect) to 100 (complete control), visual, 12 to 14 days, read-out: Plant response rating, Foxtail, Giant
  pest or weed control at 125 g/ha: 0%
Giant foxtail; Setaria faberi, pre-emergence, 312 h, 250 g ai/ha, scale 0 to 100 (0 no effect, 100 complete control), visual, 12 to 14 days, read-out: Plant response rating, Foxtail, Giant
  pest or weed control at 250 g/ha: 60%
goosegrass; Eleusine indica, pre-emergence, 312 h, 62 g ai/ha, preemergence, scale 0 to 100, read-out: Plant response rating, Goosegrass
  pest or weed control at 62 g/ha: 0%
goosegrass; Eleusine indica, pre-emergence, 312 h, 125 g ai/ha, scale 0 (no effect) to 100 (complete control), visual, 12 to 14 days, read-out: Plant response rating, Goosegrass
  pest or weed control at 125 g/ha: 25%
goosegrass; [3]
  Goosegrass plant response rating: 80
lambsquarters; Chenopodium album, pre-emergence, 62 g ai/ha, preemergence, scale 0 to 100, read-out: Plant response rating, Lambsquarters
  pest or weed control at 62 g/ha: 25%
lambsquarters; Chenopodium album, pre-emergence, 125 g ai/ha, scale 0 (no effect) to 100 (complete control), visual, 12 to 14 days, read-out: Plant response rating, Lambsquarters
  pest or weed control at 125 g/ha: 95%
lambsquarters; [3]
  Lambsquarters plant response rating: 95
Rice [1]; Oryza sativa, pre-emergence, 336 h, 125 g ai/ha, 0 = no effect, 100 = complete control, read-out: Rice plant response rating (0 to 100 scale)
  plant injury at 125 g/ha: 0%
Rice [1]; Oryza sativa, pre-emergence, 336 h, 500 g ai/ha, visual rating 0-100, 0 no effect, 100 complete control, read-out: Plant response rating, Rice
  plant injury at 500 g/ha: 50%

## CCc1nn(C(C)(C)C)cc1C(=O)Nc1cc(C(=O)N(C)C)ccn1 [Compound 293]
pigweed; [4]
  Plant response rating, Pigweed: 20
pigweed; [5]
  Plant response rating, Pigweed: 85
pigweed; [6]
  Plant response rating, Pigweed: 95
pigweed; [7]
  Plant response rating, Pigweed: 100
Giant foxtail; [4]
  Plant response rating, Foxtail, Giant: 10
Giant foxtail; [5]
  Plant response rating, Foxtail, Giant: 70
Giant foxtail; [6]
  Plant response rating, Foxtail, Giant: 100
Giant foxtail; [7]
  Plant response rating, Foxtail, Giant: 100
goosegrass; [4]
  Plant response rating, Goosegrass: 65
goosegrass; [5]
  Plant response rating, Goosegrass: 85
goosegrass; [6]
  Plant response rating, Goosegrass: 95
goosegrass; [7]
  Plant response rating, Goosegrass: 100
barnyardgrass; [8]
  Barnyardgrass plant response rating: 0
barnyardgrass; [9]
  Barnyardgrass plant response rating: 20
barnyardgrass; [10]
  Barnyardgrass plant response rating: 70
barnyardgrass; [11]
  Plant response rating, Barnyardgrass: 80
lambsquarters; [4]
  Plant response rating, Lambsquarters: 100
lambsquarters; [5]
  Plant response rating, Lambsquarters: 100
lambsquarters; [6]
  Plant response rating, Lambsquarters: 100
lambsquarters; [7]
  Plant response rating, Lambsquarters: 100
Rice [1]; [12]
  Rice plant response rating (0 to 100 scale): 90
Rice [1]; [13]
  Plant response rating, Rice: 100
Rice [2]; 62 g ai/ha, scale 0 to 100
  Rice plant response rating: 0
Rice [2]; [9]
  Rice plant response rating: 30
Rice [2]; [10]
  Rice plant response rating: 65
Rice [2]; [11]
  Plant response rating, Rice: 80

## CCn1nc(C(C)(C)C)cc1C(=O)Nc1cc(C(=S)N(C)C)ccc1F [Compound 294]
pigweed; [4]
  Plant response rating, Pigweed: 100
pigweed; [5]
  Plant response rating, Pigweed: 100
pigweed; [6]
  Plant response rating, Pigweed: 100
pigweed; [7]
  Plant response rating, Pigweed: 100
Giant foxtail; [5]
  Plant response rating, Foxtail, Giant: 80
Giant foxtail; [6]
  Plant response rating, Foxtail, Giant: 90
Giant foxtail; [7]
  Plant response rating, Foxtail, Giant: 90
goosegrass; [4]
  Plant response rating, Goosegrass: 80
goosegrass; [5]
  Plant response rating, Goosegrass: 80
goosegrass; [6]
  Plant response rating, Goosegrass: 85
goosegrass; [7]
  Plant response rating, Goosegrass: 100
barnyardgrass; [8]
  Barnyardgrass plant response rating: 75
barnyardgrass; [9]
  Barnyardgrass plant response rating: 90
barnyardgrass; [10]
  Barnyardgrass plant response rating: 95
barnyardgrass; [11]
  Plant response rating, Barnyardgrass: 100
lambsquarters; [4]
  Plant response rating, Lambsquarters: 100
lambsquarters; [5]
  Plant response rating, Lambsquarters: 100
lambsquarters; [6]
  Plant response rating, Lambsquarters: 100
lambsquarters; [7]
  Plant response rating, Lambsquarters: 100
Rice [1]; [12]
  Rice plant response rating (0 to 100 scale): 90
Rice [1]; [13]
  Plant response rating, Rice: 100
Rice [2]; 62 g ai/ha, scale 0 to 100
  Rice plant response rating: 70
Rice [2]; [9]
  Rice plant response rating: 75
Rice [2]; [10]
  Rice plant response rating: 85
Rice [2]; [11]
  Plant response rating, Rice: 90
